Test results: patent publication US4537729A, “Dimethylphosphoramidates” (Development of Finance Corporation of New Zealand, priority 1981, dated 1985)
Read-outs that look alike come from different tables or passages of the source.

Columns and labels:
[1] = test system: sarcina lutea; assay: Antibacterial activity; type: cell-based
[2] = test system: micrococcus lysodeikticus; assay: Antibacterial activity; type: cell-based
[3] = test system: streptococcus faecalis; assay: Antibacterial activity; type: cell-based
[4] = test system: neisseria catarrhalis; assay: Antibacterial activity; type: cell-based
[5] = test system: xanthomonas phaseoli; assay: Antibacterial activity; type: cell-based
[6] = test system: alcaligenes viscolactis; assay: Antibacterial activity; type: cell-based
[7] = test system: eschereichia coli; assay: Antibacterial activity; type: cell-based
[8] = test system: bacillus subtilis; assay: Antibacterial activity; type: cell-based
[9] = test system: L1210 tumour cells; assay: L1210 murine leukaemia cell culture, growth inhibition over 70 hours; type: cell-based; details: Mus musculus
[10] = test system: P388 leukaemia; assay: P388 leukaemia in vivo test in mice (i.p.); design: species or system mouse; details: for ILS (percentage increase in life span): at optimal dose (OD), days 1, 5 and 9, P388 i.p., controls survive 11 days, >20% significant; for Active: at the stated dose, P388 in vivo
Text: The P388 mouse leukaemia system has been shown by studies at the National Cancer Institute, U.S.A., to be a useful system for detecting agents with antitumour activity against clinical cancer (A. Goldin, J. M. Venditti, J. S. MacDonald, F. M. Muggia, J. E. Henney and V. T. De Vita, Europ.J.Cancer 17, 129-142 (1981).
Tumour P388 i.p.--P388 cells were obtained as frozen stocks from Mason Research Inc., U.S.A., and passaged introperitoneally according to standard methods (Cancer Chemother.Rep. 3, Part 3, page 9 (1972) in DBA-2 mice of either sex. Groups of six Fl hybrid mice (DBA-2 male x C57 Bl female, g weight 20±1 g) were injected intraperitoneally with 10^6 cells on day 0.
O.D.=optimal drug dose (in milligrams per kilogram), administered as a solution in 0.1 ml of 30% v/v ethyl alcohol in water on days 1, 5 and 9 after tumour inoculation. The drug is administered as a soluble acid addition salt.
ILS=percentage increase in life span of treated animals over that of groups of control animals injected with tumour alone. The average survival of control mice was 11 days. Values of ILS greater than 20% are considered statistically significant.
"Y. implies a significant value of drug activity at the stated dose.".

[11] = test system: staphylococcus aureus; assay: Antibacterial activity; type: cell-based
[12] = test system: aerobacter aerogenes; assay: Antibacterial activity; type: cell-based
[13] = Reversed-phase partition chromatography (Rm); type: physicochemical; details: lipophilic-hydrophilic balance, linearly related to 1-octanol/water partition coefficients
Text: Rm=a measure of the compound's lipophilic-hydrophilic balance from reversed-phase partition chromatography. Rm is linearly related to partition coefficients obtained in the 1-octanol/water system.

[14] = test system: tumour; details: literature; cited from earlier work

**Q.** With `COP(=O)(Nc1ccc(Nc2c3ccccc3nc3ccccc23)cc1)OC` [Compound 1] as the molecule, how does the antibacterial activity [1] read?
**A.** active

**Q.** What about the antibacterial activity [2] of the same molecule?
**A.** active

**Q.** What about the antibacterial activity [3] of the same molecule?
**A.** active

**Q.** What about the antibacterial activity [4] of the same molecule?
**A.** active

**Q.** What about the antibacterial activity [5] of the same molecule?
**A.** active

**Q.** And the antibacterial activity [6]?
**A.** active

**Q.** And the antibacterial activity [7]?
**A.** active

**Q.** And the antibacterial activity [8]?
**A.** active

**Q.** What about the IC50 ([9]; L1210, 70 h, read-out: ID50) of the same molecule?
**A.** 15 nM

**Q.** What about the “ILS (percentage increase in life span)” value [10] of the same molecule?
**A.** 74%

**Q.** And the Active [10]?
**A.** Y

**Q.** And the antibacterial activity [11]?
**A.** active

**Q.** What about the antibacterial activity [12] of the same molecule?
**A.** active

**Q.** And the chromatographic logP [13]?
**A.** 0.31

**Q.** Which IC50 ([9]; L1210, 70 h, read-out: ID50) does the source give for `COc1cc(NP(=O)(OC)OC)ccc1Nc1c2ccccc2nc2ccccc12` [Compound 2] here?
**A.** 70 nM

**Q.** And the “ILS (percentage increase in life span)” value [10]?
**A.** 67%

**Q.** What about the Active [10] of the same molecule?
**A.** Y

**Q.** And the chromatographic logP [13]?
**A.** 0.47

**Q.** For `COP(=O)(Nc1ccc(Nc2c3ccccc3nc3cc(C)ccc23)cc1)OC` [Compound 3], which IC50 ([9]; L1210, 70 h, read-out: ID50) is on record?
**A.** 6.8 nM

**Q.** And the “ILS (percentage increase in life span)” value [10]?
**A.** 80%

**Q.** And the Active [10]?
**A.** Y

**Q.** And the chromatographic logP [13]?
**A.** 0.49

**Q.** For `COP(=O)(Nc1ccc(Nc2c3ccccc3nc3cc(Cl)ccc23)cc1)OC` [Compound 4], which IC50 ([9]; L1210, 70 h, read-out: ID50) is on record?
**A.** 16 nM

**Q.** What about the “ILS (percentage increase in life span)” value [10] of the same molecule?
**A.** 54%

**Q.** What about the Active [10] of the same molecule?
**A.** Y

**Q.** And the chromatographic logP [13]?
**A.** 0.46

**Q.** For `COc1cc(NP(=O)(OC)OC)ccc1Nc1c2ccccc2nc2cc(Cl)ccc12` [Compound 5], which IC50 ([9]; L1210, 70 h, read-out: ID50) is on record?
**A.** 12 nM

**Q.** And the “ILS (percentage increase in life span)” value [10]?
**A.** 78%

**Q.** What about the Active [10] of the same molecule?
**A.** Y

**Q.** And the chromatographic logP [13]?
**A.** 0.61

**Q.** With `COP(=O)(Nc1ccc(Nc2c3ccccc3nc3cc(Br)ccc23)cc1)OC` [Compound 6] as the molecule, how does the IC50 ([9]; L1210, 70 h, read-out: ID50) read?
**A.** 15 nM

**Q.** And the “ILS (percentage increase in life span)” value [10]?
**A.** 76%

**Q.** And the Active [10]?
**A.** Y

**Q.** And the chromatographic logP [13]?
**A.** 0.47

**Q.** With `COc1cc(NP(=O)(OC)OC)ccc1Nc1c2ccccc2nc2cc(Br)ccc12` [Compound 7] as the molecule, how does the IC50 ([9]; L1210, 70 h, read-out: ID50) read?
**A.** 4.9 nM

**Q.** And the “ILS (percentage increase in life span)” value [10]?
**A.** 83%

**Q.** What about the Active [10] of the same molecule?
**A.** Y

**Q.** What about the chromatographic logP [13] of the same molecule?
**A.** 0.57

**Q.** Which IC50 ([9]; L1210, 70 h, read-out: ID50) does the source give for `COP(=O)(Nc1ccc(Nc2c3ccccc3nc3cc([N+](=O)[O-])ccc23)cc1)OC` [Compound 8] here?
**A.** 74 nM

**Q.** What about the “ILS (percentage increase in life span)” value [10] of the same molecule?
**A.** 22%

**Q.** What about the Active [10] of the same molecule?
**A.** Y

**Q.** And the chromatographic logP [13]?
**A.** 0.14

**Q.** Which IC50 ([9]; L1210, 70 h, read-out: ID50) does the source give for `COc1cccc2c(Nc3ccc(NP(=O)(OC)OC)cc3)c3ccccc3nc12` [Compound 9] here?
**A.** 20 nM

**Q.** What about the “ILS (percentage increase in life span)” value [10] of the same molecule?
**A.** 44%

**Q.** And the Active [10]?
**A.** Y

**Q.** And the chromatographic logP [13]?
**A.** 0.33

**Q.** Which IC50 ([9]; L1210, 70 h, read-out: ID50) does the source give for `COc1cc(NP(=O)(OC)OC)ccc1Nc1c2ccccc2nc2c(OC)cccc12` [Compound 10] here?
**A.** 12 nM

**Q.** And the “ILS (percentage increase in life span)” value [10]?
**A.** 76%

**Q.** And the Active [10]?
**A.** Y

**Q.** And the chromatographic logP [13]?
**A.** 0.47

**Q.** For `CNC(=O)c1cccc2c(Nc3ccc(NP(=O)(OC)OC)cc3)c3ccccc3nc12` [Compound 11], which IC50 ([9]; L1210, 70 h, read-out: ID50) is on record?
**A.** 97 nM

**Q.** What about the “ILS (percentage increase in life span)” value [10] of the same molecule?
**A.** 38%

**Q.** And the Active [10]?
**A.** Y

**Q.** And the chromatographic logP [13]?
**A.** 0.18

**Q.** Which results are given for `CNC(=O)c1cccc2c(Nc3ccc(NP(=O)(OC)OC)cc3OC)c3ccccc3nc12` [Compound 12]?
**A.** IC50 ([9]; L1210, 70 h, read-out: ID50): 18 nM; ILS (percentage increase in life span) [10]: 118%; Active [10]: Y; chromatographic logP [13]: 0.28

**Q.** With `COP(=O)(Nc1ccc(Nc2c3ccccc3nc3c(C)cccc23)cc1)OC` [Compound 13] as the molecule, how does the IC50 ([9]; L1210, 70 h, read-out: ID50) read?
**A.** 8.9 nM

**Q.** And the “ILS (percentage increase in life span)” value [10]?
**A.** 111%

**Q.** What about the Active [10] of the same molecule?
**A.** Y

**Q.** And the chromatographic logP [13]?
**A.** 0.46

**Q.** Which results are given for `COc1cc(NP(=O)(OC)OC)ccc1Nc1c2ccccc2nc2c(C)cccc12` [Compound 14]?
**A.** IC50 ([9]; L1210, 70 h, read-out: ID50): 18 nM; ILS (percentage increase in life span) [10]: 106%; Active [10]: Y; chromatographic logP [13]: 0.44

**Q.** Which results are given for `CNC(=O)c1cccc2c(Nc3ccc(NP(=O)(OC)OC)cc3OC)c3ccc(Cl)cc3nc12` [Compound 15]?
**A.** IC50 ([9]; L1210, 70 h, read-out: ID50): 50 nM; ILS (percentage increase in life span) [10]: 79%; Active [10]: Y; chromatographic logP [13]: 0.54

**Q.** Which results are given for `COP(=O)(Nc1ccc(Nc2c3cccc(C)c3nc3c(C)cccc23)cc1)OC` [Compound 16]?
**A.** IC50 ([9]; L1210, 70 h, read-out: ID50): 17 nM; ILS (percentage increase in life span) [10]: 109%; Active [10]: Y; chromatographic logP [13]: 0.37

**Q.** For `CS(=O)(=O)Nc1ccc(Nc2c3ccccc3nc3ccccc23)cc1` [Compound 17, 4'-(9-acridinylamino)methanesulphonanilide, reference compound], which “antitumour effect (earlier work)” value [14] is on record?
**A.** marked antitumour effect

**Q.** And the IC50 ([9]; murine L1210 leukaemia cells, 70 hours, counted cell number reduced by 50%, read-out: ID50 (the source's name))?
**A.** 35 nM

**Q.** And the “ILS (percentage increase in life span)” value [10]?
**A.** 93%

**Q.** What about the Active [10] of the same molecule?
**A.** Y

**Q.** Which “ILS (percentage increase in life span)” value [10] does the source give for `COc1cc(NS(C)(=O)=O)ccc1Nc1c2ccccc2nc2ccccc12` [Compound 18, 4'-(9-acridinylamino)methanesulphon-m-anisidide, reference compound] here?
**A.** 78%

**Q.** And the Active [10]?
**A.** Y
